The nature of series [1]: Solubility at saturation of salts and crystalline forms, buffered solution pH 6.0. Format: physicochemical. The note with it: aqueous buffer pH 6.0, after 24 hours of stirring, European Pharmacopoeia criteria. The method, then:
The purpose of this example is to determine the solubility characteristics of different crystalline forms and salts of fenofibric acid, with a view to administration by the oral mucosal route, in order to treat or forestall patients of liver diseases, such as fatty liver disease.
The solubilisation kinetics are determined by placing fenofibric acid samples at an excess in an aqueous buffered solution at pH 6.0, equivalent to salivary pH. Samples are taken after 0.5, 1, 2, 4, 6, 12 and 24 hours. They are analysed by HPLC after centrifugation and filtration of the samples on a 0.45 μm PTFE filter.
The samples are received from several Indian and Chinese suppliers. Fenofibric acid form II is obtained from a suspension of fenofibrate (ester) in isopropanol.
The results in terms of solubility at saturation (after 24 hours of stirring) are given in the table below and are expressed as per the criteria of the European Pharmacopoeia in force at the time of the tests. The melting points are obtained by DSC (endothermic peak, onset measurement).

Series [2] in a line: Solubility in 50:50 binary mixture with a surfactant. The format is physicochemical.
For another series, the system named is immortalised human cells. In words: In vitro cellular model in NASH/NAFLD: intracellular lipid droplet content. The format is cell-based. The note with it: enriched medium, increasing concentrations, 24 hours. From the text: The applicant decided to explore in vitro approaches to test fenofibric acid as a medicinal product inhibiting progression of non-alcoholic fatty liver disease/steatohepatitis. In this field, only a few data obtained in NASH/NAFLD using cellular models have been published, whereas for other liver diseases, the research models and means are more numerous and more studied. In general, immortalised cell lines and primary cell cultures are widely used to develop in vitro models for research. The immortalised primary cells are candidate cells selected for the in vitro study due to the stable phenotype thereof, but also due to a culture method that is simple and standardised to carry out. The immortalised human cells were cultured in an enriched medium containing increasing fenofibric acid concentrations. The purpose of the study consisted of measuring the intracellular lipid droplet content. The entire staining procedure is conducted at ambient temperature while protecting the samples from direct light. The images were acquired with a fluorescence microscope. The intracellular lipid droplet content was determined by labelling. […] This trend is all the more noteworthy at the highest fenofibric acid concentration wherein the quantity and size of the droplets decreased in relation to that observed with the lowest dose.

The next series concerns mouse model of NASH. In words: In vivo mouse model of non-alcoholic steatohepatitis. The note with it: mice on high-fat feed and fructose water, per os once daily. Here is the method: Fenofibric acid is studied at 2 doses and administered per os once daily. […] The number of male mice is 60 for the curative part of the study. They follow the normal light cycle, and are divided into enriched ventilated cages, after a one-week acclimatisation period. The mice are fed with high-fat content feed and fructose-enriched tap water. The mice are treated with the references or with the test formulation according to 2 doses, with daily administration per os for about 2 months. […] At different weeks of treatment, blood is collected to measure the blood glucose level, insulin, total cholesterol and triglyceride level, as well as the ALT and AST levels. After the final collection, the mice are sacrificed to measure the total hepatic cholesterol, triglycerides and fatty acid levels. Liver samples are also collected for histological analysis and the NAS score/index.

Series [3] can be described thus: Aqueous phase solubility as a function of pH / medium. Format: physicochemical.
The nature of series [4]: In vitro oral penetration study, Franz type diffusion cells. The format is in vitro ADME, pig. The note with it: 37° C., different concentrations and pH 4.5-7.4. The method, then:
One of the preferred modes of administration is the oral mucous membrane route. In order to achieve this, the applicant prepared fenofibric acid solutions from samples provided by the supplier Harman Finochem (India). The in vitro penetration of the fenofibric acid formulation is evaluated using Franz type diffusion cells at 37° C., a system routinely used to evaluate the in vitro penetration of compounds through the skin, but with the oral mucous membrane as the membrane in this instance.
The applicant chose pig oral tissue because it has a non-keratinised morphology, relatively similar to the human oral epithelium (Gandhi, R. B. and Robinson. Adv Drug Deli Rev, 13:43-74, 1994). […]
The receptor compartment is filled with pH 7.4 buffer at 37° C. and the donor compartment with micronised fenofibric acid solution at 37° C. of different concentrations (from 0.2 mg/ml) with a pH also adjusted to pH 7.4 or a solution of fenofibric acid (0.5 mg/ml) in buffer solutions of different pH (4.5, 6.0, 6.8 and 7.4). Samples are taken from the receptor compartment at a predetermined time interval (2, 5, 10, 15, 30, 60, 90, 120, 150 and 180 minutes), replaced by the same volume of buffer and subsequently analysed using the HPLC method.
The quantity of fenofibric acid presented in the […] compartment is determined as a function of time. […]

A short description of series [5]: Dissolution kinetics, USP type II paddle. Conditions: for fenofibric acid dissolved: FaSSIF and FeSSIF media. Format: physicochemical. Here is the method: The applicant studied the dissolution profile of several batches of fenofibric acid received from several suppliers. The starting material batches include different granulometric characteristics including one standard grade (non-micronised) and several micronised batches.
The batches of fenofibric acid were prepared in various pharmaceutical forms including the following excipients: hypromellose, milk protein concentrate, corn starch, Lactose monohydrate (0.4 mg/50 mg of active ingredient), sodium lauryl sulphate as surfactant, magnesium stearate, and talc as a flow agent required during production.
Dissolution tests were carried out on most of the formulation in media such as acetate buffer at […] and purified water. Similarly, the rings were tested in […] media simulating fed and fasting conditions, with addition of enzymes (media referred respectively as FeSSIF and FaSSIF) were also tested after the 50 and 100 mg doses. The USP type II paddle system was retained for the tests with 1000 ml of volume, 37° C. and the samples, taken at 0, 2, 5, 10, 15, 20, 30, 45 and 60 minutes, were analysed by HPLC without replenishing the media.

In brackets after ≈: the same amount, converted by molar mass. Entries after “also recorded” stand apart in the source; their conditions may differ.

By solubility is commonly meant the concentration that dissolves in the medium under given conditions. Low values mean little dissolved substance, high ones much dissolved substance.

On to `CC(C)(Oc1ccc(C(=O)c2ccc(Cl)cc2)cc1)C(=O)O` [Fenofibric acid form II], for which the Solubility at saturation entry in series [1] was “Slightly soluble”.
As for `CC(C)(Oc1ccc(C(=O)c2ccc(Cl)cc2)cc1)C(=O)O` [fenofibric acid, 2-(4-(4-chlorobenzoyl)phenoxy)-2-methylpropanoic], the Solubility in water in series [2] (surfactant Cremophor EL, 50:50 binary mixture) came to 56 mg/g; in series [2] (surfactant Cremophor RH40, 50:50 binary mixture), 59 mg/g; in series [2] (surfactant Labrasol, 50:50 binary mixture), 55 mg/g; in series [2] (surfactant Solutol HS15, 50:50 binary mixture) it was 60 mg/g; in series [2] (surfactant Tween 80, 50:50 binary mixture), 61 mg/g. The “intracellular lipid droplet content” value with immortalised human cells was “dose-dependent fat reduction”. Besides, the “increase in the triglyceride level” value in the series on mouse model of NASH is on record as “significantly inhibit the increase”. Also, the “increase in the weight of the liver” value in the series on mouse model of NASH is “significantly inhibit the increase”. Also, the “plasma ALT concentration” value in the series with mouse model of NASH was “decreased substantially”; with mouse model of NASH (listed as Fenofibric acid), “notably reduced”. Also, the “development of fatty liver disease (macroscopic and microscopic examination of the liver)” value in the series on mouse model of NASH (about 2 months) is “prevented the development of fatty liver disease”. Besides, the “increase in the fatty liver disease activity score” value with mouse model of NASH (liver histology) is given as “significantly inhibit the increase”. Moreover, the “increase in the fibrotic zones” value in the series on mouse model of NASH (liver histology) is “significantly inhibit the increase”. Further, the solubility in series [3] (0.01M sodium lauryl sulphate, aqueous with cosolvent or surfactant or cyclodextrin) was 90 µg/mL (≈ 282 µM); in series [3] (0.1M sodium lauryl sulphate, aqueous with cosolvent or surfactant or cyclodextrin), 810 µg/mL (≈ 2540 µM); in series [3] (0.1N HCl, simulated gastric fluid) it was 2 µg/mL (≈ 6.27 µM); in series [3] (aqueous buffer, Phosphate buffer pH = 4.5), 40 µg/mL (≈ 125 µM); in series [3] (aqueous buffer, Phosphate buffer pH = 5.5) it was 330 µg/mL (≈ 1040 µM); in series [3] (aqueous buffer, Phosphate buffer pH = 6.5), 1060 µg/mL (≈ 3330 µM). The amount in solution in series [3] (purified water, water) (solubility) came to 20 µg/mL (≈ 62.7 µM). In addition, the “solubility as a function of pH” value in series [3] (greatest at pH values closest to neutrality) is on record as “increases as a function of pH”. For the same compound, the “penetration through the porcine oral mucous membrane” value in series [4] is recorded as “noteworthy penetration; also recorded: rapidly absorbed”. Moreover, the values for the fenofibric acid dissolved entry in series [5] (after 10 minutes) and in series [5] (after 30 minutes) were “over 80%” and “entirety”, respectively. Also, the “dissolution of the active ingredient alone” value in series [5] (after 60 minutes, paddle, 1000 ml, 37° C.) was “totally dissolved”.

(Values after patent publication US20190247343A1, “USE OF FENOFIBRIC ACID IN THE TREATMENT OF HEPATIC DISEASES” (GENCOD, priority 2016, published 2019).)
